Data from patent publication US20230002359A1, “PESTICIDALLY ACTIVE FUSED BICYCLIC HETEROAROMATIC COMPOUNDS” (priority 2019, published 2023).
Where two headings read alike, the source gives them in different places.

Legend:
Format in all cases: in vivo
[1] = system: Diabrotica Balteata (Corn Root Worm); experiment: Example B1: Diabrotica balteata (corn root worm), maize sprouts sprayed, L2 larvae; conditions: 96 h, read-out: control in at least one of the two categories (mortality or growth inhibition)
Method in brief: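 Spray test: maize sprouts on agar, aqueous dilutions of 10′000 ppm DMSO stock; after drying, 6–10 L2 larvae/well. Read-out at 4 d post-infestation: mortality and growth inhibition vs untreated.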

[2] = system: Euschistus heros (Neotropical Brown Stink Bug); experiment: Example B2: Euschistus heros (neotropical brown stink bug), soybean leaves sprayed, N2 nymphs; conditions: 120 h, read-out: control in at least one of the two categories (mortality or growth inhibition)
Protocol: Soybean leaves on agar in 24-well microtiter plates were sprayed with aqueous test solutions prepared from 10′000 ppm DMSO stock solutions. After drying the leaves were infested with N2 nymphs. The samples were assessed for mortality and growth inhibition in comparison to untreated samples 5 days after infestation.

[3] = system: Chilo suppressalis (Striped Rice Stemborer); experiment: Example B3: Chilo suppressalis (striped rice stemborer), artificial diet, L2 larvae; conditions: 144 h, read-out: control in at least one of the three categories (mortality, anti-feedant effect, or growth inhibition)
Method in brief: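 Artificial diet in wells was treated with aqueous test solutions diluted from 10'000 ppm DMSO stocks, dried, then infested with 6-8 L2 larvae per well. Mortality, anti-feeding effect and growth inhibition were scored against untreated samples 6 days after infestation; control means any category exceeds the untreated sample.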

[4] = system: Plutella xylostella (Diamond Back Moth); experiment: Example B4: Plutella xylostella (diamond back moth), artificial diet, eggs, 24-well; conditions: 192 h, read-out: control in at least one of the two categories (mortality or growth inhibition)
Protocol: 24-well microtiter plates with artificial diet were treated with aqueous test solutions prepared from 10′000 ppm DMSO stock solutions by pipetting. After drying, Plutella eggs were pipetted through a plastic stencil onto a gel blotting paper and the plate was closed with it. The samples were assessed for mortality and growth inhibition in comparison to untreated samples 8 days after infestation.

[5] = system: Myzus persicae (Green Peach Aphid); experiment: Example B6: Myzus persicae (green peach aphid) intrinsic activity, sucrose solution; conditions: 120 h
Method in brief: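 Mortality was read 5 days after infestation. Aphids on pea seedlings fed through a stretched Parafilm membrane on inverted 24-well plates containing sucrose solution mixed with test compound, which was diluted from 10′000 ppm DMSO stock.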

[6] = system: Spodoptera littoralis (Egyptian Cotton Leaf Worm); experiment: Example B7: Spodoptera littoralis (Egyptian cotton leaf worm), cotton leaf discs sprayed, L1 larvae; conditions: foliar, 72 h, read-out: control in at least one of the three categories (mortality, anti-feedant effect, or growth inhibition)
Method in brief: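 Read-out: mortality, feeding deterrence and growth inhibition, assessed 3 days after infestation relative to untreated samples. Sprayed, dried cotton leaf discs on agar each received five first-instar (L1) larvae; sprays were aqueous solutions prepared from 10′000 ppm DMSO stocks.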

[7] = system: Myzus persicae (Green Peach Aphid); experiment: Example B5: Myzus persicae (green peach aphid) feeding/contact activity, sunflower leaf discs; conditions: foliar, 144 h, application rate of 200 ppm, 6 days after infestation
Protocol: Sunflower leaf discs were placed onto agar in a 24-well microtiter plate and sprayed with aqueous test solutions prepared from 10′000 ppm DMSO stock solutions. After drying, the leaf discs were infested with an aphid population of mixed ages. The samples were assessed for mortality 6 days after infestation.

[8] = application rate of 200 ppm, 4 days after infestation, L2 larvae
[9] = application rate of 200 ppm, 5 days after infestation, N2 nymphs
[10] = application rate of 200 ppm, 6 days after infestation, L2 larvae
[11] = application rate of 200 ppm, 8 days after infestation, eggs
[12] = test rate of 12 ppm, 5 days after infestation, intrinsic activity, read-out: mortality
[13] = application rate of 200 ppm, 3 days after infestation, L1 larvae

CC(c1ncnn1-c1ccc(C#N)cn1)N(C(=O)OCc1ccccc1)c1ncnc2c(C(F)(F)F)cc(C(F)(F)F)cc12 (stereo not shown) [P.10, benzyl N-[6,8-bis(trifluoromethyl)quina-zolin-4-yl]-N-[1-[2-(5-cyano-2-pyridyl)-1,2,4-triazol-3-yl]ethyl]carbamate]
≥ 80%: percent control (mortality or growth inhibition) at 200 ppm [1] | percent control (mortality or growth inhibition) at 200 ppm [2] | percent control (mortality, anti-feedant effect or growth inhibition) at 200 ppm [3] | percent control (mortality or growth inhibition) at 200 ppm [4] | mortality at 12 ppm [5] | percent control (mortality, anti-feedant effect or growth inhibition) at 200 ppm [6]

CC(Nc1ncnc2c(C(F)(F)F)cc(C(F)(F)F)cc12)c1ncnn1-c1ncccn1 (stereo not shown) [P.16, N-[1-(2-pyrimidin-2-yl-1,2,4-triazol-3-yl)ethyl]-6,8-bis(trifluoromethyl)quinazolin-4-amine]
≥ 80%: percent control (mortality or growth inhibition) at 200 ppm [1, 8] | percent control (mortality or growth inhibition) at 200 ppm [2, 9] | percent control (mortality, anti-feedant effect or growth inhibition) at 200 ppm [3, 10] | percent control (mortality or growth inhibition) at 200 ppm [4, 11] | mortality at 12 ppm [5, 12] | percent control (mortality, anti-feedant effect or growth inhibition) at 200 ppm [6, 13]

C[C@H](Nc1ncnc2c(C(F)(F)F)cc(Cl)cc12)c1ncnn1-c1ncccn1 [P.24, 6-chloro-N-[(1S)-1-(2-pyrimidin-2-yl-1,2,4-triazol-3-yl)ethyl]-8-(trifluoromethyl)quinazolin-4-amine]
≥ 80%: percent control (mortality or growth inhibition) at 200 ppm [1, 8] | percent control (mortality, anti-feedant effect or growth inhibition) at 200 ppm [3, 10] | percent control (mortality or growth inhibition) at 200 ppm [4, 11] | mortality at 200 ppm [7] | mortality at 12 ppm [5, 12] | percent control (mortality, anti-feedant effect or growth inhibition) at 200 ppm [6, 13]

CC(Nc1ncnc2c(C(F)(F)F)cc(Cl)cc12)c1ncnn1-c1ncccn1 (stereo not shown) [P.40, 6-chloro-N-[1-(2-pyrimidin-2-yl-1,2,4-triazol-3-yl)ethyl]-8-(trifluoromethyl)quinazolin-4-amine]
≥ 80%: percent control (mortality or growth inhibition) at 200 ppm [1, 8] | percent control (mortality or growth inhibition) at 200 ppm [2, 9] | percent control (mortality, anti-feedant effect or growth inhibition) at 200 ppm [3, 10] | percent control (mortality or growth inhibition) at 200 ppm [4, 11] | mortality at 12 ppm [5, 12] | percent control (mortality, anti-feedant effect or growth inhibition) at 200 ppm [6, 13]

CC(Nc1nc(C(F)(F)F)nc2c(C(F)(F)F)cc(C(F)(F)F)cc12)c1ncnn1-c1ccc(C#N)cn1 (stereo not shown) [P.59, 6-[5-[1-[[2,6,8-tris(trifluoromethyl)quina-zolin-4-yl]amino]ethyl]-1,2,4-triazol-1-yl]pyridine-3-carbonitrile]
≥ 80%: mortality at 200 ppm [7]

CC(c1ncnn1-c1ncccn1)N(C)c1ncnc2c(C(F)(F)F)cc(Br)cc12 (stereo not shown) [P.127, 6-bromo-N-methyl-N-[1-(2-pyrimidin-2-yl-1,2,4-triazol-3-yl)ethyl]-8-(trifluoromethyl)quinazolin-4-amine]
≥ 80%: percent control (mortality or growth inhibition) at 200 ppm [1, 8] | percent control (mortality, anti-feedant effect or growth inhibition) at 200 ppm [3, 10] | percent control (mortality or growth inhibition) at 200 ppm [4, 11] | mortality at 200 ppm [7] | mortality at 12 ppm [5, 12] | percent control (mortality, anti-feedant effect or growth inhibition) at 200 ppm [6, 13]

CC(c1ncnn1-c1ncccn1)N(C)c1ncnc2c(Cl)c(F)c(Cl)cc12 (stereo not shown) [P.165, 6,8-dichloro-7-fluoro-N-methyl-N-[1-(2-pyrimidin-2-yl-1,2,4-triazol-3-yl)ethyl]quinazolin-4-amine]
≥ 80%: mortality at 200 ppm [7]

COCN(c1ncnc2c(C(F)(F)F)cc(C(F)(F)F)cc12)[C@@H](C)c1ncnn1-c1ccc(C#N)cn1 [P.169, 6-[5-[(1S)-1-[[6,8-bis(trifluoromethyl)quina-zolin-4-yl]-(methoxymethyl)amino]ethyl]-1,2,4-triazol-1-yl]pyridine-3-carbonitrile]
≥ 80%: percent control (mortality or growth inhibition) at 200 ppm [1, 8] | percent control (mortality or growth inhibition) at 200 ppm [2, 9] | percent control (mortality, anti-feedant effect or growth inhibition) at 200 ppm [3, 10] | percent control (mortality or growth inhibition) at 200 ppm [4, 11] | mortality at 12 ppm [5, 12] | percent control (mortality, anti-feedant effect or growth inhibition) at 200 ppm [6, 13]

C[C@@H](c1ncnn1-c1ccc(C#N)cn1)N(C)c1ncnc2c(C(F)(F)F)cc(I)cc12 [P.184, 6-[5-[(1S)-1-[[6-iodo-8-(trifluoromethyl)quinazolin-4-yl]-methyl-amino]ethyl]-1,2,4-triazol-1-yl]pyridine-3-carbonitrile]
≥ 80%: percent control (mortality or growth inhibition) at 200 ppm [1, 8] | percent control (mortality, anti-feedant effect or growth inhibition) at 200 ppm [3, 10] | percent control (mortality or growth inhibition) at 200 ppm [4, 11] | mortality at 200 ppm [7] | mortality at 12 ppm [5, 12]

CC(Nc1ncnc2c(C(F)(F)F)cc(OC(F)(F)F)cc12)c1ncnn1-c1ccc(C#N)cn1 (stereo not shown) [P.220, 6-[5-[1-[[6-(trifluoromethoxy)-8-(trifluoromethyl)quinazolin-4-yl]amino]ethyl]-1,2,4-triazol-1-yl]pyridine-3-carbonitrile]
≥ 80%: percent control (mortality or growth inhibition) at 200 ppm [1, 8] | percent control (mortality or growth inhibition) at 200 ppm [2, 9] | percent control (mortality, anti-feedant effect or growth inhibition) at 200 ppm [3, 10] | percent control (mortality or growth inhibition) at 200 ppm [4, 11] | mortality at 12 ppm [5, 12] | percent control (mortality, anti-feedant effect or growth inhibition) at 200 ppm [6, 13]

C=CCN(c1ncnc2c(C(F)(F)F)cc(C(F)(F)F)cc12)C(C)c1ncnn1-c1ccc(C#N)cn1 (stereo not shown) [P.260, 6-[5-[1-[allyl-[6,8-bis(trifluoromethyl)quina-zolin-4-yl]amino]ethyl]-1,2,4-triazol-1-yl]pyridine-3-carbonitrile]
≥ 80%: percent control (mortality or growth inhibition) at 200 ppm [1, 8] | percent control (mortality or growth inhibition) at 200 ppm [2, 9] | percent control (mortality, anti-feedant effect or growth inhibition) at 200 ppm [3, 10] | percent control (mortality or growth inhibition) at 200 ppm [4, 11] | mortality at 12 ppm [5, 12] | percent control (mortality, anti-feedant effect or growth inhibition) at 200 ppm [6, 13]

C[C@@H](c1ncnn1-c1ncccn1)N(C)c1ncnc2c(C(F)(F)F)cc(S(=O)(=O)C(F)(F)F)cc12 [P.262, N-methyl-N-[(1S)-1-(2-pyrimidin-2-yl-1,2,4-triazol-3-yl)ethyl]-8-(trifluoromethyl)-6-(trifluoromethylsulfonyl) quinazolin-4-amine]
≥ 80%: percent control (mortality or growth inhibition) at 200 ppm [1, 8] | percent control (mortality or growth inhibition) at 200 ppm [2, 9] | percent control (mortality, anti-feedant effect or growth inhibition) at 200 ppm [3, 10] | percent control (mortality or growth inhibition) at 200 ppm [4, 11] | mortality at 12 ppm [5, 12] | percent control (mortality, anti-feedant effect or growth inhibition) at 200 ppm [6, 13]

C[C@H](Nc1ncnc2c(I)cc(C(F)(F)F)cc12)c1ncnn1-c1ccc(C#N)cn1 [P.263, 6-[5-[(1S)-1-[[8-iodo-6-(trifluoromethyl)quinazolin-4-yl]amino]ethyl]-1,2,4-triazol-1-yl]pyridine-3-carbonitrile]
≥ 80%: percent control (mortality or growth inhibition) at 200 ppm [1, 8] | percent control (mortality or growth inhibition) at 200 ppm [2, 9] | percent control (mortality, anti-feedant effect or growth inhibition) at 200 ppm [3, 10] | percent control (mortality or growth inhibition) at 200 ppm [4, 11] | mortality at 12 ppm [5, 12] | percent control (mortality, anti-feedant effect or growth inhibition) at 200 ppm [6, 13]

CC(c1ncnn1-c1ccc(C#N)cn1)N(C)c1ncnc2c(Br)cc(C(F)(F)F)cc12 (stereo not shown) [P.266, 6-[5-[1-[[8-bromo-6-(trifluoromethyl)quinazolin-4-yl]-methyl-amino]ethyl]-1,2,4-triazol-1-yl]pyridine-3-carbonitrile]
≥ 80%: percent control (mortality or growth inhibition) at 200 ppm [1, 8] | percent control (mortality or growth inhibition) at 200 ppm [2, 9] | percent control (mortality, anti-feedant effect or growth inhibition) at 200 ppm [3, 10] | percent control (mortality or growth inhibition) at 200 ppm [4, 11] | mortality at 12 ppm [5, 12] | percent control (mortality, anti-feedant effect or growth inhibition) at 200 ppm [6, 13]

C[C@@H](c1ncnn1-c1ncccn1)N(CC1CC1)c1ncnc2c(Cl)cc(C(F)(F)F)cc12 [P.272, 8-chloro-N-(cyclopropylmethyl)-N-[(1S)-1-(2-pyrimidin-2-yl-1,2,4-triazol-3-yl)ethyl]-6-(trifluoromethyl)quinazolin-4-amine]
≥ 80%: percent control (mortality or growth inhibition) at 200 ppm [1, 8] | percent control (mortality or growth inhibition) at 200 ppm [2, 9] | percent control (mortality, anti-feedant effect or growth inhibition) at 200 ppm [3, 10] | percent control (mortality or growth inhibition) at 200 ppm [4, 11] | mortality at 12 ppm [5, 12] | percent control (mortality, anti-feedant effect or growth inhibition) at 200 ppm [6, 13]
